# Test results as given in the supplement of paper PMC10307832.
# What was measured:
# Assay in all cases: relative viability (nuclei count vs DMSO), 5 days (fraction); higher = more cells survive
# [1] = compound: C1/C(=C\C2=CC=CS2)/C(=O)/C(=C/C3=CC=CS3)/C1 + Cc1nc(Nc2ncc(C(=O)Nc3c(C)cccc3Cl)s2)cc(N2CCN(CCO)CC2)n1 [Dasatinib] (partner 0.075 µM)
# Procedure, shortened: (§1)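 Medians of duplicate plates are given as relative viability. That measure is the nuclei count in treated wells divided by the count in vehicle wells. Counts were taken on 4× images of lung cancer cell lines in 1536-well plates, 5 days after pin-tool dosing the day after seeding with one drug alone or a fixed anchor-drug dose plus five library-drug doses (not always all listed) in √10 steps.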
# TPCA-1 + AZD7762 = compound: C1=CC(=CC=C1C2=CC(=C(S2)NC(=O)N)C(=O)N)F [TPCA-1] + NC(=O)Nc1cc(-c2cccc(F)c2)sc1C(=O)N[C@H]1CCCNC1 [AZD7762] (partner 0.2 µM)
# Procedure, shortened: as §1
# [2] = compound: C1/C(=C\C2=CC=CS2)/C(=O)/C(=C/C3=CC=CS3)/C1 + CC(=O)c1c(C)c2cnc(Nc3ccc(N4CCNCC4)cn3)nc2n(C2CCCC2)c1=O [Palbociclib] (partner 0.5 µM)
# Procedure, shortened: as §1
# TPCA-1 + OSI-027 = compound: C1=CC(=CC=C1C2=CC(=C(S2)NC(=O)N)C(=O)N)F [TPCA-1] + COc1cccc2cc(-c3nc([C@H]4CC[C@H](C(=O)O)CC4)n4ncnc(N)c34)[nH]c12 [OSI-027] (partner 0.5 µM)
# Procedure, shortened: as §1
Cell Line,relative viability ([1]; first compound 0.2 µM),relative viability ([1]; first compound 0.6325 µM),relative viability ([1]; first compound 2 µM),relative viability ([1]; first compound 6.325 µM),relative viability ([1]; first compound 20 µM),relative viability (TPCA-1 + AZD7762; first compound 0.04 µM),relative viability (TPCA-1 + AZD7762; first compound 0.1265 µM),relative viability (TPCA-1 + AZD7762; first compound 0.4 µM),relative viability (TPCA-1 + AZD7762; first compound 1.265 µM),relative viability (TPCA-1 + AZD7762; first compound 4 µM),relative viability ([2]; first compound 0.2 µM),relative viability ([2]; first compound 0.6325 µM),relative viability ([2]; first compound 2 µM),relative viability ([2]; first compound 6.325 µM),relative viability ([2]; first compound 20 µM),relative viability (TPCA-1 + OSI-027; first compound 0.04 µM),relative viability (TPCA-1 + OSI-027; first compound 0.1265 µM),relative viability (TPCA-1 + OSI-027; first compound 0.4 µM),relative viability (TPCA-1 + OSI-027; first compound 1.265 µM),relative viability (TPCA-1 + OSI-027; first compound 4 µM)
NCI-H1666,0.833,0.847,0.811,0.786,0.875,0.895,0.659,0.79,0.714,0.757,0.68,0.645,0.624,0.521,0.672,0.856,0.788,0.851,0.883,0.865
NCI-H1734,0.458,0.49,0.498,0.458,0.497,0.558,0.504,0.604,0.639,0.374,0.386,0.336,0.346,0.225,0.359,0.822,0.477,0.656,0.745,0.33
NCI-H1755,0.393,0.462,0.445,0.366,0.375,0.444,0.634,0.402,0.337,0.378,0.432,0.454,0.458,0.333,0.409,0.755,0.621,0.804,0.539,0.496
NCI-H1792,0.774,0.613,0.968,0.758,0.752,0.623,0.62,0.596,0.483,0.363,0.665,0.656,0.713,0.331,0.627,0.701,0.653,0.696,0.618,0.564
NCI-H1793,0.381,0.441,0.472,0.341,0.37,0.53,0.649,0.751,0.392,0.144,0.343,0.368,0.351,0.306,0.315,0.233,–,0.275,0.285,0.139
NCI-H1915,0.337,0.335,0.328,0.202,0.321,0.744,0.679,0.671,0.588,0.617,0.507,0.55,0.515,0.459,0.5,0.695,0.563,0.676,0.509,0.467
NCI-H1944,0.225,0.202,0.217,0.225,0.19,0.474,0.484,0.565,0.455,0.474,0.349,0.371,0.349,–,0.317,0.482,0.398,0.416,0.368,0.318
NCI-H1975,0.445,0.328,–,0.206,0.387,0.717,0.682,0.763,0.923,0.522,0.661,0.547,0.426,0.506,0.549,0.836,0.737,0.676,0.633,0.295
